We go through 6 compounds from patent publication US4770996A, “Identification of individuals predisposed toward alcohol abuse” (priority 1986, dated 1988).

Experiment [1] concerns platelet adenylate cyclase. Nature of the experiment: Platelet membrane adenylate cyclase (AC) assay, 32P-ATP to 32P-cAMP. It is filed as biochemical, human. Further details: Adenylate Cyclase Activity - CsF-Stimulated / Adenylate Cyclase Activity - CsF-Stimulated, Mean ± SD: unit not given here. Particulars: for Enzyme Activity +PGE1 (1 uM) / Enzyme Activity +Gpp(NH)p: mean ± SD; for Enzyme Activity +Gpp(NH)p: Gpp(NH)p 10 uM; for Adenylate Cyclase Activity - CsF-Stimulated / Adenylate Cyclase Activity - CsF-Stimulated, Mean ± SD / Enzyme Activity +CsF: CsF 10 mM. The procedure:
Platelets were prepared from whole blood (20 ml) which was obtained by venipuncture from healthy volunteers and alcoholic subjects. After standing at room temperature for approximately three to four hours in citrate-phosphate-dextrose solution, each blood sample was centrifuged at 180×G for two minutes. […] The PRP was centrifuged at 16,000 g for ten minutes. The pellet was resuspended in 50 ml of cold 50 mM Tris-HCl, pH 7.5, containing […] NaCl and 20 mM ethylene diamine tetraacetic acid (EDTA). The centrifugation was repeated twice, and the final pellet was resuspended in 1 ml of cold 5 mM Tris-HCl, pH 7.5, containing 5 mM EDTA. Suspensions were rapidly frozen at -70° C., and samples were stored at -70° C. for no longer than four weeks prior to assay. AC activity was assayed by a modification of previously described methods, Hoffman and Tabakoff, J. Pharmacol. Exptl. […] Platelets were thawed at room temperature, aliquots of platelets were diluted to 4 ml with 5 mM Tris-HCl buffer containing 5 mM EDTA, and the suspension was centrifuged at 39,000×G for ten minutes at 4° C. […] The reaction was stopped by placing the tubes in a boiling water bath for three minutes. […] The ^32 p-cAMP was isolated by sequential chromatography on Dowex (Sigma Chemical Co., St. Louis, Mo.) and alumina columns (Sigma Chemical Co., St. Louis, Mo.), Salomon et. al., Anal. […] To each column effluent, 10 ml of scintilation cocktail was added, and ^32 p-cAMP was quantitated in a liquid scintillation spectrometer. All values were corrected for percentage recovery of the product (^32 p-cAMP).

In experiment [2] the test system is platelet adenylate cyclase. The note with it: Jakobs et al., J. Recep. Res. 4:443-458, 1984; cited from earlier work.
The target of experiment [3] is T1, platelet monoamine oxidase (MAO) (Homo sapiens, UniProt P27338).
T1 construct: contained approximately 15 ug of platelet protein; from tissue; host or cells: platelets (membranes) from whole blood of volunteers and alcoholic subjects
T1 sequence (P27338 1-520): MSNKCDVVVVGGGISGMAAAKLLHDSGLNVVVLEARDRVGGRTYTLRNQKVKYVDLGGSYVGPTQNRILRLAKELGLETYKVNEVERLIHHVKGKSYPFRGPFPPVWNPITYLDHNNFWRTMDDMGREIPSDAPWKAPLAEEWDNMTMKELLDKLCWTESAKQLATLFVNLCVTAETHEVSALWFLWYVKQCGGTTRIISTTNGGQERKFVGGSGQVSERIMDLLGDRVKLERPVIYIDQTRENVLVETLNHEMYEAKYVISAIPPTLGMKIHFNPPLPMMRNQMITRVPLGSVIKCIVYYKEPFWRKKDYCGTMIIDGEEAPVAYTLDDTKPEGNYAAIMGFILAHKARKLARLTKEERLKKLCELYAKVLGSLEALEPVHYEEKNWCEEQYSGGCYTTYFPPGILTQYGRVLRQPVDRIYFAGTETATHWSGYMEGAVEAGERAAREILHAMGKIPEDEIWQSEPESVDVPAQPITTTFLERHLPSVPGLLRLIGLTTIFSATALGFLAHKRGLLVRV
As to the kind of experiment: Platelet monoamine oxidase (MAO) assay, deamination of 14C-PEA. It is filed as biochemical. The note with it: for Percent Inhibition by 400 mM Ethyl Alcohol / Percent Inhibition by 400 mM Ethyl Alcohol, Mean ± SD / Percent Inhibition by 400 mM ETOH: 12 uM PEA; for Percent Inhibition by 400 mM ETOH: mean ± SD. The procedure:
Platelets were prepared from whole blood (20 ml) which was obtained by venipuncture from healthy volunteers and alcoholic subjects. After standing at room temperature for approximately three to four hours in citrate-phosphate-dextrose solution, each blood sample was centrifuged at 180×G for two minutes. The platelet-rich plasma (PRP) was carefully removed and platelet count was determined from aliquots (20 ul) of the PRP with a Coulter S-plus Thrombocounter. The PRP was centrifuged at 16,000 g for ten minutes. The pellet was resuspended in 50 ml of cold 50 mM Tris-HCl, pH 7.5, containing […] NaCl and 20 mM ethylene diamine tetraacetic acid (EDTA). The centrifugation was repeated twice, and the final pellet was resuspended in 1 ml of cold 5 mM Tris-HCl, pH 7.5, containing 5 mM EDTA. Suspensions were rapidly frozen at -70° C., and samples were stored at -70° C. for no longer than four weeks prior to assay.
To measure the deamination of ^14 C-PEA, assay mixtures (total volume, 0.3 ml) contained approximately 15 ug of platelet protein. Reactions were carried out in 0.1 M sodium phosphate, pH 7.4, at 37° C. A five-minute preincubation period preceded the addition of substrate, and blanks were preincubated in the presence of 1×10^-3 M pargyline. Appropriate concentrations of ^14 C-PEA (10,000 dpm per nmole) were added to initiate the reaction, and the incubation was carried out for 15 minutes. The reaction was stopped by placing the tubes in an ice bath and adding 1.0 ml of ice-cold unlabeled PEA solution (10^-4 M) to each assay tube. A 1-ml aliquot was then removed from each tube and placed on an Amberlite™ ion exchange column, Tabakoff et. al., Psychopharmacol. 87:152 (1985). The columns were washed with two 1-ml portions of distilled water and the effluent was collected in scintillation vials. Two additional ml of water and 20 ml of scintillation fluid were added to each vial, and radioactivity was determined in a liquid scintillation spectrometer. To study the effects of ethanol or other alcohols on MAO activity, the alcohols were added to incubation mixtures five minutes prior to the addition of substrate.

For `CCCCC[C@H](O)/C=C/[C@H]1[C@H](O)CC(=O)[C@@H]1CCCCCCC(=O)O` [PGE1, prostaglandin E1], the “Enzyme Activity +PGE1 (1 uM)” value is reported as 84.4 ± 36.1 pmole cAMP/mg protein/minute in experiment [1] (platelets of Alcoholics, n=34, significant vs control); 115.5 ± 32.9 pmole cAMP/mg protein/minute in experiment [1] (platelets of Controls, n=21); 42.7 ± 12.8 pmole cAMP/mg protein/minute in experiment [1] (platelets of Recovering Alcoholics, n=8, significant vs control and vs alcoholics).

In the case of `[Na+]` [Na^+], the “effect of sodium ion on stimulation of platelet AC activity” value in experiment [2] is recorded as “inhibits stimulation of platelet AC activity”.

For `Nc1nc2c(ncn2[C@@H]2O[C@H](COP(=O)(O)OP(=O)(O)NP(=O)(O)O)[C@@H](O)[C@H]2O)c(=O)[nH]1` [Gpp(NH)p, guanylylimidodiphosphate], the “Enzyme Activity +Gpp(NH)p” value was 37.8 ± 14.4 pmole cAMP/mg protein/minute in experiment [1] (platelets of Alcoholics, n=43, significant vs control); 50.4 ± 15.0 pmole cAMP/mg protein/minute in experiment [1] (platelets of Controls, n=36); 37.2 ± 16.5 pmole cAMP/mg protein/minute in experiment [1] (platelets of Recovering Alcoholics, n=23, significant vs control).

In the case of `CCO` [ethyl alcohol], the “nature of MAO inhibition by ethyl alcohol added in vitro” value in experiment [3] (in vitro, amount of inhibition depended on substrate concentration) was “reversible and was "competitive" in nature”. The “Percent Inhibition by 400 mM Ethyl Alcohol” value is 7.0% in experiment [3] (patient No. 1, Sample 1 (baseline)); 7.6% in experiment [3] (patient No. 1, Sample 2 (five days later)); 6.1% in experiment [3] (patient No. 1, Sample 3 (six days later)); 13.1% in experiment [3] (patient No. 2, Sample 1 (baseline)); 7.9% in experiment [3] (patient No. 2, Sample 2 (five days later)); 9.8% in experiment [3] (patient No. 2, Sample 3 (six days later)). Besides, the “Percent Inhibition by 400 mM Ethyl Alcohol, Mean ± SD” value was 6.9 ± 0.8% in experiment [3] (patient No. 1, mean of 3 samples) and 10.3 ± 2.6% in experiment [3] (patient No. 2, mean of 3 samples). The “Percent Inhibition by 400 mM ETOH” value in experiment [3] (platelets of Alcoholics, n=54, P < 0.01 vs control) is listed as 12.6 ± 7.0%; in experiment [3] (platelets of Controls, n=28), 7.5 ± 6.9%; in experiment [3] (platelets of Recovering Alcoholics, n=22, P < 0.05 vs control) it was 11.4 ± 6.2%.

For the compound `[Cs+].[F-]` [CsF, cesium fluoride], the “Adenylate Cyclase Activity - CsF-Stimulated” value worked out at 83.6 in experiment [1] (control subject No. 5, Sample 1); 69.5 in experiment [1] (control subject No. 5, Sample 2 (one week interval)); 72.3 in experiment [1] (control subject No. 5, Sample 3 (one week interval)); 104.2 in experiment [1] (control subject No. 6, Sample 1); 98.0 in experiment [1] (control subject No. 6, Sample 2 (one week interval)); 100.2 in experiment [1] (control subject No. 6, Sample 3 (one week interval)). The “Adenylate Cyclase Activity - CsF-Stimulated, Mean ± SD” value in experiment [1] (control subject No. 5, mean of 3 samples) is recorded as 75.1 ± 7.5; in experiment [1] (control subject No. 6, mean of 3 samples), 100.8 ± 3.1. Moreover, the “Enzyme Activity +CsF” value in experiment [1] (platelets of Alcoholics, mean (SD 27.8), n=107, significant vs control) was 78.2 pmole cAMP/mg protein/minute; in experiment [1] (platelets of Controls, mean (SD 28.7), n=49) it was 97.9 pmole cAMP/mg protein/minute; in experiment [1] (platelets of Recovering Alcoholics, mean (SD 27.2), n=38, significant vs control) it was 70.6 pmole cAMP/mg protein/minute.

Broadly, the Km is the substrate concentration at which the rate is half of its maximum. `Nc1ncnc2c1ncn2[C@@H]1O[C@H](COP(=O)(O)OP(=O)(O)OP(=O)(O)O)[C@@H](O)[C@H]1O` [Mg-adenosine triphosphate]: the “maximal activity (Vmax) of adenylate cyclase” value in experiment [1] (platelets of control subjects, 10 mM Mg++, varying ATP, mean±SD, n=3) is given as 15.1±2.4 pmole cAMP produced/min/mg pro. The Km in experiment [1] (platelets of control subjects, 10 mM Mg++, varying ATP, mean±SEM, n=3, read-out: Km of adenylate cyclase for Mg-adenosine triphosphate (ATP)) was found to be 20.1 ± 3.8 µM.
